Test results reported in US9957569B2, “Recurrent gene fusions in prostate cancer” (THE REGENTS OF THE UNIVERSITY OF MICHIGAN, priority 2005, dated 2018).

How the values were obtained:
[1] = biological target: androgen receptor (AR) (Homo sapiens, UniProt P10275, T878A); conditions: LNCaP
Experimental: LNCaP, an androgen sensitive prostate cancer cell line, was maintained in RPMI with 10% FBS. For androgen stimulation experiments, cells were placed for two days in phenol red-free RPMI, supplemented with 5% of charcoal-treated FCS before being treated with 1% ethanol or 10 nM R1881 for the following time points 0, 3, 12, 24, and 48 hours. Cells were treated for 16 hours with androgen and crosslinked for chromatin immunoprecipitation (ChIP) analysis.
The input whole-cell extract DNA and the ChIP-enriched DNA were amplified by ligation-mediated PCR, and subjected to qPCR assessment of target promoters. ChIP enrichment was evaluated as a percentage of input DNA.

[2] = system: VCaP and LNCaP prostate cancer cell lines; test: QPCR of PSA and ETV1 in VCaP and LNCaP cells treated with R1881; assay type: cell-based, human
[3] = system: ERG; test: Androgen regulation of Erg expression in LNCap and VCaP cells; assay type: cell-based, human; conditions: VCaP (TMPRSS2-ERG+), varying amounts of R1881, 48 hrs
Experimental: This Example describes the androgen regulation of Erg expression. LNCap (TMPRSS2-ERG-) and VCaP (TMPRSS2-ERG+) cell lines were used. The cells were contacted with varying amounts of R1881 for 48 hrs. Expression of Erg, PSA (+control) and beta-tubulin (−control) were assayed.

[4] = system: ERG; test: In vitro androgen responsiveness: ERG expression by QPCR after R1881; assay type: cell-based, human; conditions: 1 nM R1881, 24 h; for increase in expression of ERG compared to untreated controls: QPCR ERG/GAPDH; for expression of ERG after R1881 treatment compared to untreated controls: QPCR
Experimental: Quantitative PCR (QPCR) was performed using SYBR Green dye on an Applied Biosystems 7300 Real Time PCR system essentially as described (Chinnaiyan et al., Cancer Res 65, 3328 (2005); Rubin et al., Cancer Res 64, 3814 (2004)). Briefly, 1-5 μg of total RNA was reverse transcribed into cDNA using SuperScript III (Invitrogen) in the presence of random primers or random primers and oligo dT primers. All reactions were performed with SYBR Green Master Mix (Applied Biosystems) and 25 ng of both the forward and reverse primer using the manufacturer's recommended thermocycling conditions. All reactions were subjected to melt curve analysis and products from selected experiments were resolved by electrophoreses on 1.5% agarose gels. For each experiment, threshold levels were set during the exponential phase of the QPCR reaction using Sequence Detection Software version 1.2.2 (Applied Biosystems). The amount of each target gene relative to the housekeeping gene glyceraldehyde-3-phosphate dehydrogenase (GAPDH) for each sample was determined using the comparative threshold cycle (Ct) method (Applied Biosystems User Bulletin #2), with the cDNA sample serving as the calibrator for each experiment described in the figure legend. All oligonucleotide primers were synthesized by Integrated DNA Technologies. GAPDH primers were as described (Vandesompele et al., Genome Biol 3, RESEARCH0034 (2002)) and all other primers are listed (Table 4).
RWPE, LNCaP, VCap DuCaP, PC3 and PC3 cells stably transfected with the human androgen receptor (PC3+AR) (3) were treated for 24 h with 1% ethanol control or 1 nM of the synthetic androgen R1881. Total RNA was isolated and subjected to reverse transcription and QPCR as described above with ERG exon 5-6_f and _r primers. The relative amount of ERG/GAPDH for each sample was calibrated to the RWPE control sample.

[5] = system: LNCaP prostate cancer cell line; test: Androgen stimulation time course of LNCaP cells, Q-PCR of FLJ35294, CANT1 and DDX5 transcripts; assay type: cell-based, human
Experimental: Q-PCR was carried out according to standard protocols.
Samples were normalized by the mRNA level of the housekeeping gene GAPDH. Androgen stimulation reactions were performed in triplicate, and all other reactions were performed in duplicate. RNA Ligase Mediated Rapid Amplification of cDNA Ends (RLM-RACE)

[6] = system: LNCaP prostate cancer cell line; test: Androgen stimulation of LNCaP cells, qPCR of endogenous 5′ fusion partner genes; assay type: cell-based, human; conditions: 1 nM R1881, 24 h
Experimental: For androgen stimulation experiments, LNCaP cells were grown in charcoal-stripped serum containing media for 24 hours before treatment for 24 hours with 1% ethanol or 1 nM of methyltrienolone (R1881, NEN Life Science Products, Boston, Mass.) dissolved in ethanol.
Quantitative PCR (QPCR) was performed using Power SYBR Green Mastermix (Applied Biosystems, Foster City, Calif.) on an Applied Biosystems 7300 Real Time PCR system as described (Tomlins et al., Cancer Res 66, 3396-400 (2006); Tomlins et al., Recurrent fusion of TMPRSS2 and ETS transcription factor genes in prostate cancer. Science 310, 644-8 (2005)). HMBS and GAPDH5, and PSA6 primers were as described. Androgen stimulation reactions were performed in quadruplicate, all other reactions were performed in duplicate.

androgen receptor (AR), sequence (P10275 whole entry T878A): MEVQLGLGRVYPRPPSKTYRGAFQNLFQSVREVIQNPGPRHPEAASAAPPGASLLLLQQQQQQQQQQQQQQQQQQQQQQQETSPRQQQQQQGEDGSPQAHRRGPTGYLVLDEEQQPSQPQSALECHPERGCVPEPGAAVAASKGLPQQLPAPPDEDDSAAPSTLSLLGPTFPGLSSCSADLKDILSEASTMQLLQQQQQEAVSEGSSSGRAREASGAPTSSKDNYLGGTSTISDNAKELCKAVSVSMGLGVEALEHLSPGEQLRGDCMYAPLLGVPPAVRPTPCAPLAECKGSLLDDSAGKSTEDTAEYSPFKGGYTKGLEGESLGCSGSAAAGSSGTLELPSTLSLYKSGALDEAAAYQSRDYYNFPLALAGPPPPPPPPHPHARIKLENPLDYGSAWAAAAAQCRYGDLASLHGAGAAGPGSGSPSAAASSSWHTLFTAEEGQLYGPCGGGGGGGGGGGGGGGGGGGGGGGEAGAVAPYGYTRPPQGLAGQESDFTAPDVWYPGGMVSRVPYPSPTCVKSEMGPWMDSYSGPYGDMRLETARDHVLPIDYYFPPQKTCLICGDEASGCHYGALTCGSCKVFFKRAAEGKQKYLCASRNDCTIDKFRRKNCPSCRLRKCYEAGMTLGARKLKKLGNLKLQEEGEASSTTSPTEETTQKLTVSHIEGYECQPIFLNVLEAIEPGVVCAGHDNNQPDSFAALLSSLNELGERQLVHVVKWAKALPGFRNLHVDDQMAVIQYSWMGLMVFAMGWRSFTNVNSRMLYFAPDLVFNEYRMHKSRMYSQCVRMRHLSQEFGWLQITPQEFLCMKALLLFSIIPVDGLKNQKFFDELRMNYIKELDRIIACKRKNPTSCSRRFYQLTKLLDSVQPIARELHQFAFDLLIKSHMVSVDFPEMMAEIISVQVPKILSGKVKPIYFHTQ

C[C@]1(O)CC[C@H]2[C@@H]3CCC4=CC(=O)CCC4=C3C=C[C@@]21C [R1881, methyltrienolone]
AR recruitment to the promoter region of DDX5 (ChIP) ([1]; 16 hours after R1881): not recruited
AR occupancy of the promoter region of CANT1 (ChIP enrichment) ([1]; 16 hours after R1881, P=0.0014): 40 fold
AR occupancy of the promoter region of FL35294 (ChIP enrichment) ([1]; 16 hours after R1881, P=0.005): 9 fold
ETV1 expression by QPCR ([2]; LNCaP cells, 1 nM R1881, 48 hours): induction
ETV1 expression ([2]; androgen-responsive VCaP cell line): does not induce
PSA expression by QPCR (normalized to GAPDH) ([2]; both VCaP and LNCaP cells, 1 nM R1881, 48 hours): induction
ERG expression, androgen dependence [3]: androgen dependent
increase in expression of ERG compared to untreated controls ([4]; DuCaP cells): 2.57 fold
expression of ERG after R1881 treatment compared to untreated controls ([4]; LnCaP cells): 0.86 fold
expression of ERG after R1881 treatment compared to untreated controls ([4]; PC3 cells expressing the androgen receptor): 0.73 fold
expression of ERG after R1881 treatment compared to untreated controls ([4]; PC3 cells): 1.28 fold
expression of ERG after R1881 treatment compared to untreated controls ([4]; RWPE cells): 1.37 fold
increase in expression of ERG compared to untreated controls ([4]; VCaP cells): 5.02 fold
expression of DDX5 on R1881 stimulation ([5]; 10 nM R1881, Q-PCR): not affected
induction of expression of endogenous CANT1 ([5]; 10 nM R1881, at 24 hours, Q-PCR, P=0.0014): 3.8 fold
induction of expression of endogenous FL35294 ([5]; 10 nM R1881, at 48 hours, Q-PCR, P=0.0006): 11.6 fold
decrease in expression of C15ORF21 ([6]; P=0.0012): 1.9 fold
change in expression of HNRPA2B1 (not significantly changed) ([6]; P=0.29): 1.17 fold
increase in endogenous expression of HERV-K_22q11.23 ([6]; P=2.4E-4): 7.8 fold
increase in endogenous expression of SLC45A3 ([6]; P=6.5E-4): 21.6 fold
increase in endogenous expression of TMPRSS2 ([6]; P=9.95E-7): 14.8 fold
